Where no end group is shown, it is not given here.
Tests used:
Abl SH3 Domäne = Abl SH3 Domäne (Homo sapiens, UniProt P00519); assay: Fluorescence titration (intrinsic tryptophan fluorescence), binding constant; conditions: Abl SH3 domain; fluorescence titration, 0,5 µM SH3 domain in PBS, 1mM DDT; each experiment done twice
From the text: (§1) Die Messungen wurden im Wesentlichen wie bei Schweimer K, Hoffmann S, Bauer F, Friedrich U, Kardinal C, Feller SM, Biesinger B, Sticht H. Structural investigation of the bindung of a herpesviral protein to the SH3 domain of tyrosine kinase Lck. Biochemistry. 2002 Apr 23;41(16):5120-30 beschrieben unter Verwendung eines Perkin-Elmer LS 55 Fluoreszenzspektrometers bei einer Anregungswellenlänge von 290 nm und einer Emissionswellenlänge von 345 nm durchgeführt. […] Nach PD1-Zugabe wurde jeweils die resultierende Fluoreszenzänderung aufgezeichnet. Durch eine Kontrolltitration (Hintergrundmessung), bei welcher die Peptidlösung gegen Wasser ersetzt wurde, konnten die Abweichungen der Fluoreszenzweite, welche durch eine sinkende SH3-Endkonzentration während der Titration hervorgerufen wurden, ausgeglichen werden. […] F = Fmin + (([Pges] + [Lges] + Kd)/(2)-sqrt(((([Pges]+[Lges]+Kd))^2)/(4)-[Pges]*[Lges]))*((Fmax-Fmin))/(Pges) [formula]
(§2) Durch nichtlineare Regression mit Fmax und Kd als angepasste Parameter konnten die experimentellen Daten an obige Gleichung angepasst werden.

Hck-SH3 = Hck-SH3 (Homo sapiens, UniProt P08631); assay: as above; conditions: Hck SH3 domain; fluorescence titration, 0,5 µM SH3 domain in PBS, 1mM DDT; each experiment done twice
Hck-SH3, sequence (P08631 78-138 limits assumed): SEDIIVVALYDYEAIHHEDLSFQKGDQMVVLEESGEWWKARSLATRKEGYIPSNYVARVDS
From the text: as §1, §2

Lck-SH3 [1] = molecular target: T1, Lck-SH3 (Homo sapiens, UniProt P06239); assay: as above; conditions: Lck SH3 domain; fluorescence titration, 0,5 µM free SH3 domain in PBS, 1mM DDT; each experiment done twice
T1 construct: Inkubation der Membran mit dem zu untersuchenden Protein (hier Lck-SH3); made in house
T1 sequence (P06239 61-121 limits assumed): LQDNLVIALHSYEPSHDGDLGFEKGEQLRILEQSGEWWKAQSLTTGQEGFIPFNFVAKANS
From the text: as §1, §2

PI3K SH3 Domäne = PI3K SH3 Domäne (Homo sapiens, UniProt P27986); assay: as above; conditions: PI3K SH3 domain; fluorescence titration, 0,5 µM SH3 domain in PBS, 1mM DDT; each experiment done twice
PI3K SH3 Domäne, sequence (P27986 3-79 limits assumed): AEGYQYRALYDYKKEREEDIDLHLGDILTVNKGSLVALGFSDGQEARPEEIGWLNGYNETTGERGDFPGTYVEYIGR
From the text: as §1, §2

Lck-SH3 [2] = molecular target: T1, Lck-SH3; assay: PepSpot membrane substitution analysis, relative Lck binding activity; conditions: 7 of 12 positions of PD1-R substituted, 0,5 µg/ml SH3 protein, Fig. 4
From the text: Eine andere Methode, Protein-Protein-Wechselwirkungen zu untersuchen, ist die Benutzung so genannter PepSpot-Membranen. Sie basiert auf der Synthese von immobilisierten Peptiden auf aktivierten Membrane und kann z. B. zur Optimierung der Bindungseigenschaften bereits identifizierter Liganden durch Substitutionsanalyse verwendet werden. Nach der Inkubation der Membran mit dem zu untersuchenden Protein (hier Lck-SH3) und der anschließenden Detektion wird anhand der Spotfärbung eine Interaktion des Proteins mit den entsprechenden immobilisierten Peptiden nachgewiesen. Die Stärke der Spotintensitäten ist ein Maß für die Stärke der Bindung. Eine zusammenfassende Übersicht findet sich bei Reinecke U., Volkmer-Engert R., Schneider-Mergener J. Applikation of peptide arrays prepared by the SPOT-technology. Current Opinion in Biotechnology 2001, 12:59-64.
Für den Immunoassay wurde die PepSpot-Membran über Nacht in 20 ml Blocking Puffer geblockt. Nach einmaligem Waschen mit T-TBS für 10 min wurde die Membran für 3 h mit 0,5 µg/ml SH3 Protein in 20 ml Blocking Puffer inkubiert. Danach wurde die Membran dreimal für je 10 min mit T-TB S gewaschen. […] Die Spot-Intensitäten wurden mit der QuantityOne Software (Bio-Rad, München) ausgewertet Die Analyse der Spot-Intensitäten erfolgte nach Subtraktion des Hintergrundes. […]

GST-Lck-SH3 = molecular target: T2, GST-Lck-SH3 (Homo sapiens, UniProt P06239); assay: anti-Phage-ELISA, relative Lck-SH3 binding activity of phage clones; conditions: phage-displayed peptide; detection at 450 nm; Fig. 1; 7 single experiments
T2 construct: rekombinant hergestellte Lck SH3 als Fusion mit Glutathion-S-Transferase (GST-Lck-SH3); made in house
T2 sequence (P06239 61-121 limits assumed): as the sequence (P06239 61-121 limits assumed) above
From the text: Dieser Bindungstest ist ein häufig verwendeter Test zur schnellen Bestimmung relativer Bindungsstarken selektierter Peptide, die hierbei noch physikalisch mit dem Phagen verknüpft vorliegen. Dieser Schritt dient auch zur Eliminierung von (bei dieser Methode nicht selten auftretenden) Phagenvarianten, die z. B. aufgrund ihrer Affinität zur Plastikoberfläche der verwendeten Mikrotiterplatten, angereichert werden und die somit zur Verfälschung der Ergebnisse führen können. Eine grundsätzliche Beschreibung der Methode findet sich z. B. unter Sparks et al. Methods Enzymol. 1995; 255:498-509.
GST-Lck-SH3 Protein wurde in einer Konzentration von 10 µg/ml in Tris-Bis über Nacht bei 4°C in Mikrotiterplatten immobilisiert. Verbleibende Bindungsstellen wurden durch 2-stündige Inkubation mit Blockierungspuffer (Bis-Tris mit 2.% Magermilchpulver) abgesättigt.
In einer anderen Mikrotiterplatte wurden zuerst je 100 µl Suspension der zu testenden Phagenvariante mit 100 µl Blockierungspuffer für 20 Minuten vorinkubiert und erst dann für 1 Stunde zum immobilisierten GST-Lck-SH3 Protein gegeben. Nach einem Waschschritt mit Bis-Tris wurde ein Meerrettich-Peroxidase-konjugierter Antikörper zugegeben und die Platten für eine weitere Stunde inkubiert. […]

Abl SH3 Domäne, sequence (P00519 61-121 limits assumed): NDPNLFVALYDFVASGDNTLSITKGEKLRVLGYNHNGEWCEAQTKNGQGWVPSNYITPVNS

## HSKRPLPPLPSL [PD1-R]
Abl SH3 Domäne
  Kd: > 300 µM
Hck-SH3
  Kd: 0.47 ± 0.02 µM
Lck-SH3 [1]
  Kd: 23.1 ± 1.97 µM
PI3K SH3 Domäne
  Kd: 13.1 ± 0.48 µM

## HSKYPLPPLPSL [PD1]
Abl SH3 Domäne
  Kd: > 300 µM
Hck-SH3
  Kd: 0.23 ± 0.03 µM
Lck-SH3 [1]
  Kd: 48.7 ± 1.65 µM
PI3K SH3 Domäne
  Kd: 112 ± 10.1 µM

## HFKRPLPPLPSL [PD1-R(-5)F, substitution variant of PD1-R found on PepSpot membrane]
Lck-SH3 [2]
  Bindung an die Lck-SH3 (Spot-Intensität): stärkste Bindung

## HTLQIPQHATSF
GST-Lck-SH3
  relative Lck-SH3-Bindungsaktivität: nicht bindende

Source: EP1983049B1, “Peptides binding to the Lck-SH3 and Hck-SH3 domains” (Forschungszentrum Jülich GmbH, priority 2005, dated 2006)
